Reference: US5324715A, “Protein for inhibiting collagen-stimulated platelet aggregation” (Merck & Co., Inc., priority 1993, dated 1994)

B1: collagen-stimulated platelet aggregation inhibitor isolated from Haementeria officinalis salivary gland extract (leech antiplatelet protein, LAPP) (protein)
chain: QDEDAGGAGDETSEGEDTTGSDETPSTGGGGDGGNEETITAGNGDCWSKRPGWKLPDNLLTKTEFTSVDECRKMCEESAVEPSCYILQINTETNECYRNNEGDVTWSSLQYDQPNVVQWHLHACSK

Columns and labels:
[1] = system: washed human platelets; test: Collagen-stimulated platelet aggregation (aggregometer); type: cell-based; conditions: 0.25 mM arachidonic acid added later; 2 μg/ml collagen; inhibitor of Examples 1 and 2 present
Procedure: Human platelets are washed in modified Tyrode's buffer with no Ca^++ with 0.2 mg/ml fibrinogen. The washed platelets are incubated at 37° C. for 2 minutes with the sample to be tested. Collagen at 1 or 2 μg/ml final concentration is added and platelet aggregation in an aggregometer is monitored. Inhibitory activity is defined as a decrease in the rate and/or extent of platelet aggregation.
The IC50 for this inhibition was 45 nM. Inhibition of collagen stimulation was overcome by later addition of 0.25 mM arachidonic acid.

[2] = molecular target: collagen

Row | Molecule | Inhibition of collagen stimulation of platelet aggregation (by the Haementeria officinalis inhibitor) overcome by later addition [1] | IC50 of inhibition of collagen-stimulated platelet aggregation [2] [nM]
1 | CCCCC/C=C\C/C=C\C/C=C\C/C=C\CCCC(=O)O [arachidonic acid] | overcome | –
2 | B1 | – | 45
